Source: US20020137154A1, “Methods for improving cell growth and alcohol production during fermentation” (priority 2000, published 2002)
Read-outs that look alike come from different tables or passages of the source.

System: recombinant Escherichia coli KO11
Test: Batch fermentation of E. coli KO11 in 1% CSL medium and glucose with nutrient additives: ethanol production and cell growth
Assay type: cell-based
Conditions: for Ethanol Production Maximum / Ethanol yield / Initial Growth (OD @ 24 h) OD / Maximum Cell Density OD / Volumetric Productivity Average / Volumetric Productivity Maximum: 1% CSL+glucose; for activity at 500 µg/mL / activity at 250 µg/mL / activity at 750 µg/mL: Escherichia coli

Question: For `CC=O` [Acetaldehyde, acetaldehyde], which “initial growth and maximum cell density as compared to a control” value (1% CSL and glucose, 0.25 g/L at the start) is on record?
Answer: The value was “greatest initial growth and maximum cell density”.

Question: What about the “ethanol production as compared to the control” value (1% CSL and glucose, 0.75 g/L at the start) of the same compound?
Answer: Its value is “highest amount of ethanol production”.

Question: And the “Ethanol Production Maximum” value (0.25 g/L at start)?
Answer: The value was 40.31 g/L.

Question: And the Ethanol yield (0.25 g/L at start)?
Answer: Its Ethanol yield is 0.415 grams of ethanol/grams of added sugar.

Question: What about the “Initial Growth (OD @ 24 h) OD” value (0.25 g/L at start) of the same compound?
Answer: The value was 3.00 OD.

Question: And the “Maximum Cell Density OD” value (0.25 g/L at start)?
Answer: Its value is 3.17 OD.

Question: What about the “Volumetric Productivity Average” value (0.25 g/L at start) of the same compound?
Answer: The value was 0.560 grams ethanol/(liter)(hour).

Question: And the “Volumetric Productivity Maximum” value (0.25 g/L at start)?
Answer: Its value is 0.678 grams ethanol/(liter)(hour).

Question: What about the “Ethanol Production Maximum” value (0.5 + 0.25 g/L (start, 8 h)) of the same compound?
Answer: The value was 40.25 g/L.

Question: And the Ethanol yield (0.5 + 0.25 g/L (start, 8 h))?
Answer: The Ethanol yield was 0.414 grams of ethanol/grams of added sugar.

Question: And the “Initial Growth (OD @ 24 h) OD” value (0.5 + 0.25 g/L (start, 8 h))?
Answer: The value was 2.64 OD.

Question: What about the “Maximum Cell Density OD” value (0.5 + 0.25 g/L (start, 8 h)) of the same compound?
Answer: Its value is 2.99 OD.

Question: And the “Volumetric Productivity Average” value (0.5 + 0.25 g/L (start, 8 h))?
Answer: The value was 0.419 grams ethanol/(liter)(hour).

Question: And the “Volumetric Productivity Maximum” value (0.5 + 0.25 g/L (start, 8 h))?
Answer: The value was 0.598 grams ethanol/(liter)(hour).

Question: What about the “Ethanol Production Maximum” value (0.5 + 0.5 g/L (start, 8 h)) of the same compound?
Answer: Its value is 40.03 g/L.

Question: And the Ethanol yield (0.5 + 0.5 g/L (start, 8 h))?
Answer: Its Ethanol yield is 0.412 grams of ethanol/grams of added sugar.

Question: What about the “Initial Growth (OD @ 24 h) OD” value (0.5 + 0.5 g/L (start, 8 h)) of the same compound?
Answer: Its value is 2.74 OD.

Question: And the “Maximum Cell Density OD” value (0.5 + 0.5 g/L (start, 8 h))?
Answer: Its value is 3.09 OD.

Question: And the “Volumetric Productivity Average” value (0.5 + 0.5 g/L (start, 8 h))?
Answer: Its value is 0.417 grams ethanol/(liter)(hour).

Question: What about the “Volumetric Productivity Maximum” value (0.5 + 0.5 g/L (start, 8 h)) of the same compound?
Answer: Its value is 0.659 grams ethanol/(liter)(hour).

Question: What about the “Ethanol Production Maximum” value (0.5 g/L at start) of the same compound?
Answer: Its value is 39.95 g/L.

Question: And the Ethanol yield (0.5 g/L at start)?
Answer: The Ethanol yield was 0.411 grams of ethanol/grams of added sugar.

Question: And the “Initial Growth (OD @ 24 h) OD” value (0.5 g/L at start)?
Answer: Its value is 2.77 OD.

Question: What about the “Maximum Cell Density OD” value (0.5 g/L at start) of the same compound?
Answer: Its value is 2.96 OD.

Question: What about the “Volumetric Productivity Average” value (0.5 g/L at start) of the same compound?
Answer: The value was 0.416 grams ethanol/(liter)(hour).

Question: And the “Volumetric Productivity Maximum” value (0.5 g/L at start)?
Answer: Its value is 0.615 grams ethanol/(liter)(hour).

Question: What about the “Ethanol Production Maximum” value (0.75 g/L at start) of the same compound?
Answer: Its value is 43.44 g/L.

Question: What about the Ethanol yield (0.75 g/L at start) of the same compound?
Answer: The Ethanol yield was 0.447 grams of ethanol/grams of added sugar.

Question: What about the “Initial Growth (OD @ 24 h) OD” value (0.75 g/L at start) of the same compound?
Answer: The value was 2.47 OD.

Question: And the “Maximum Cell Density OD” value (0.75 g/L at start)?
Answer: The value was 2.81 OD.

Question: And the “Volumetric Productivity Average” value (0.75 g/L at start)?
Answer: The value was 0.452 grams ethanol/(liter)(hour).

Question: And the “Volumetric Productivity Maximum” value (0.75 g/L at start)?
Answer: Its value is 0.699 grams ethanol/(liter)(hour).

Question: And the activity at 500 µg/mL (8 h, read-out: Ethanol Production Maximum % Control, 1% CSL+glucose, 0.5 + 0.25 g/L (start, 8 h))?
Answer: The activity at 500 µg/mL was 109%.

Question: What about the activity at 500 µg/mL (8 h, read-out: Ethanol Production Maximum % Control, 1% CSL+glucose, 0.5 + 0.5 g/L (start, 8 h)) of the same compound?
Answer: Its activity at 500 µg/mL is 108%.

Question: And the activity at 500 µg/mL (8 h, read-out: Maximum Cell Density % Control, 1% CSL+glucose, 0.5 + 0.25 g/L (start, 8 h))?
Answer: The activity at 500 µg/mL was 111%.

Question: And the activity at 500 µg/mL (8 h, read-out: Maximum Cell Density % Control, 1% CSL+glucose, 0.5 + 0.5 g/L (start, 8 h))?
Answer: The activity at 500 µg/mL was 115%.

Question: What about the activity at 500 µg/mL (8 h, read-out: Volumetric Productivity Average % Control, 1% CSL+glucose, 0.5 + 0.25 g/L (start, 8 h)) of the same compound?
Answer: The activity at 500 µg/mL was 109%.

Question: What about the activity at 500 µg/mL (8 h, read-out: Volumetric Productivity Average % Control, 1% CSL+glucose, 0.5 + 0.5 g/L (start, 8 h)) of the same compound?
Answer: Its activity at 500 µg/mL is 108%.

Question: What about the activity at 500 µg/mL (8 h, read-out: Volumetric Productivity Maximum % Control, 1% CSL+glucose, 0.5 + 0.25 g/L (start, 8 h)) of the same compound?
Answer: The activity at 500 µg/mL was 116%.

Question: And the activity at 500 µg/mL (8 h, read-out: Volumetric Productivity Maximum % Control, 1% CSL+glucose, 0.5 + 0.5 g/L (start, 8 h))?
Answer: The activity at 500 µg/mL was 128%.

Question: What about the activity at 250 µg/mL (24 h, read-out: Initial Growth (OD @ 24 h) % Control, 1% CSL+glucose, 0.25 g/L at start) of the same compound?
Answer: Its activity at 250 µg/mL is 112%.

Question: What about the activity at 500 µg/mL (24 h, read-out: Initial Growth (OD @ 24 h) % Control, 1% CSL+glucose, 0.5 + 0.25 g/L (start, 8 h)) of the same compound?
Answer: Its activity at 500 µg/mL is 98.9%.

Question: And the activity at 500 µg/mL (24 h, read-out: Initial Growth (OD @ 24 h) % Control, 1% CSL+glucose, 0.5 + 0.5 g/L (start, 8 h))?
Answer: The activity at 500 µg/mL was 103%.

Question: What about the activity at 500 µg/mL (24 h, read-out: Initial Growth (OD @ 24 h) % Control, 1% CSL+glucose, 0.5 g/L at start) of the same compound?
Answer: The activity at 500 µg/mL was 104%.

Question: What about the activity at 750 µg/mL (24 h, read-out: Initial Growth (OD @ 24 h) % Control, 1% CSL+glucose, 0.75 g/L at start) of the same compound?
Answer: The activity at 750 µg/mL was 92.5%.

Question: What about the activity at 250 µg/mL (read-out: Ethanol Production Maximum % Control, 1% CSL+glucose, 0.25 g/L at start) of the same compound?
Answer: Its activity at 250 µg/mL is 109%.

Question: What about the activity at 500 µg/mL (read-out: Ethanol Production Maximum % Control, 1% CSL+glucose, 0.5 g/L at start) of the same compound?
Answer: The activity at 500 µg/mL was 108%.

Question: What about the activity at 750 µg/mL (read-out: Ethanol Production Maximum % Control, 1% CSL+glucose, 0.75 g/L at start) of the same compound?
Answer: The activity at 750 µg/mL was 117%.

Question: And the activity at 250 µg/mL (read-out: Maximum Cell Density % Control, 1% CSL+glucose, 0.25 g/L at start)?
Answer: The activity at 250 µg/mL was 118%.

Question: And the activity at 500 µg/mL (read-out: Maximum Cell Density % Control, 1% CSL+glucose, 0.5 g/L at start)?
Answer: The activity at 500 µg/mL was 110%.

Question: And the activity at 750 µg/mL (read-out: Maximum Cell Density % Control, 1% CSL+glucose, 0.75 g/L at start)?
Answer: Its activity at 750 µg/mL is 105%.

Question: And the activity at 250 µg/mL (read-out: Volumetric Productivity Average % Control, 1% CSL+glucose, 0.25 g/L at start)?
Answer: The activity at 250 µg/mL was 145%.

Question: What about the activity at 500 µg/mL (read-out: Volumetric Productivity Average % Control, 1% CSL+glucose, 0.5 g/L at start) of the same compound?
Answer: The activity at 500 µg/mL was 108%.

Question: What about the activity at 750 µg/mL (read-out: Volumetric Productivity Average % Control, 1% CSL+glucose, 0.75 g/L at start) of the same compound?
Answer: The activity at 750 µg/mL was 117%.

Question: And the activity at 250 µg/mL (read-out: Volumetric Productivity Maximum % Control, 1% CSL+glucose, 0.25 g/L at start)?
Answer: The activity at 250 µg/mL was 132%.

Question: And the activity at 500 µg/mL (read-out: Volumetric Productivity Maximum % Control, 1% CSL+glucose, 0.5 g/L at start)?
Answer: The activity at 500 µg/mL was 120%.

Question: And the activity at 750 µg/mL (read-out: Volumetric Productivity Maximum % Control, 1% CSL+glucose, 0.75 g/L at start)?
Answer: Its activity at 750 µg/mL is 136%.
